Laboratory results from the supplement of paper PMC11451515.

How the values were obtained:
Details in all cases: 48 h
NOMO1 [1] = experiment: cell viability relative to DMSO control; higher = less cytotoxic
Summary of the method: (§1)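 Viability is expressed as a percentage of DMSO wells within each plate, and cell-free wells serve as background. Seeding densities in the 1536-well plates (5 μl) were 500 cells/well for NOMO1 or SEM leukemia cells and 1000 cells/well for P12-Ichikawa. Each line was adapted for at least four passages in each medium. Library compounds in DMSO were pin-dosed at 47 μM to 0.79 nM (11 points, threefold), and CellTiter-Glo One luminescence was read after 48 h at 37°C.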

P12-Ichikawa [2] = experiment: as above
Summary of the method: as §1

SEM cells [3] = experiment: as above
Summary of the method: as §1

NOMO1 [4] = experiment: AUC of viability dose-response curve (% viability x log10 dose units); higher = less sensitive
Summary of the method: (§2)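 Area under the curve was integrated by trapezoidal rule from a log-logistic fit of normalised viability, with curves exceeding full viability scaled and quality-control failures removed. The fit had four parameters over log10 doses. Viability came from CellTiter-Glo One luminescence, normalised per plate to DMSO and cell-free wells, after leukemia cells adapted to each medium (500 or 1000 cells/well, 1536-well plates) were exposed to library compounds in DMSO for 48 h at 37°C. The 11 threefold doses ran from 47 μM to 0.79 nM.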

P12-Ichikawa [5] = experiment: as above
Summary of the method: as §2

SEM cells [6] = experiment: as above
Summary of the method: as §2

COC(=O)CCC1=C(C)C2=CC3=NC(=CC4=C(C)C(=C([NH]4)C=C\5N=C(C=C1[NH]2)\C(=C5C)CCC(O)=O)C=C)\C6=C\C=C(/[C@@H](C(=O)OC)[C@@]36C)C(=O)OC
cell viability [%]
Details | NOMO1 [1] | P12-Ichikawa [2] | SEM cells [3]
HPLM + 10% dialyzed FBS, 0.000781 µM | 95.4 | 98.8 | 88.5
HPLM + 10% dialyzed FBS, 0.00234 µM | 94.3 | 103 | 83.3
HPLM + 10% dialyzed FBS, 0.00702 µM | 91.5 | 101 | 89.7
HPLM + 10% dialyzed FBS, 0.0211 µM | 91.9 | 111 | 85.4
HPLM + 10% dialyzed FBS, 0.0632 µM | 92.6 | 102 | 94.2
HPLM + 10% dialyzed FBS, 0.19 µM | 97 | 105 | 94.4
HPLM + 10% dialyzed FBS, 0.569 µM | 103 | 109 | 98
HPLM + 10% dialyzed FBS, 1.71 µM | 80.3 | 106 | 95.7
HPLM + 10% dialyzed FBS, 5.12 µM | 78.6 | 101 | 91.7
HPLM + 10% dialyzed FBS, 15.4 µM | 38.9 | 98.7 | 82.7
HPLM + 10% dialyzed FBS, 46.1 µM | 14.1 | 93.3 | 77.4
RPMI 5 mM glucose + 10% FBS, 0.000781 µM | 86.6 | 93.3 | 89.4
RPMI 5 mM glucose + 10% FBS, 0.00234 µM | 89.3 | 101 | 92
RPMI 5 mM glucose + 10% FBS, 0.00702 µM | 91.9 | 104 | 91.8
RPMI 5 mM glucose + 10% FBS, 0.0211 µM | 97.5 | 100 | 94.9
RPMI 5 mM glucose + 10% FBS, 0.0632 µM | 116 | 97.1 | 95.2
RPMI 5 mM glucose + 10% FBS, 0.19 µM | 109 | 100 | 98.1
RPMI 5 mM glucose + 10% FBS, 0.569 µM | 101 | 103 | 87.7
RPMI 5 mM glucose + 10% FBS, 1.71 µM | 102 | 96.8 | 98.9
RPMI 5 mM glucose + 10% FBS, 5.12 µM | 101 | 88.9 | 95.4
RPMI 5 mM glucose + 10% FBS, 15.4 µM | 55.2 | 77.1 | 89.7
RPMI 5 mM glucose + 10% FBS, 46.1 µM | 14.5 | 60.9 | 75.4
RPMI 5 mM glucose + 10% dialyzed FBS, 0.000781 µM | 85.4 | 88 | 86.6
RPMI 5 mM glucose + 10% dialyzed FBS, 0.00234 µM | 99 | 94.7 | 90.7
RPMI 5 mM glucose + 10% dialyzed FBS, 0.00702 µM | 87 | 97.8 | 101
RPMI 5 mM glucose + 10% dialyzed FBS, 0.0211 µM | 98.4 | 95.6 | 108
RPMI 5 mM glucose + 10% dialyzed FBS, 0.0632 µM | 88 | 103 | 105
RPMI 5 mM glucose + 10% dialyzed FBS, 0.19 µM | 90.8 | 96.9 | 122
RPMI 5 mM glucose + 10% dialyzed FBS, 0.569 µM | 93.7 | 105 | 104
RPMI 5 mM glucose + 10% dialyzed FBS, 1.71 µM | 86.6 | 104 | 108
RPMI 5 mM glucose + 10% dialyzed FBS, 5.12 µM | 94.9 | 94.6 | 105
RPMI 5 mM glucose + 10% dialyzed FBS, 15.4 µM | 45.7 | 84.9 | 91.3
RPMI 5 mM glucose + 10% dialyzed FBS, 46.1 µM | 18.4 | 82.9 | 80.4

AUC of viability dose-response curve
Details | NOMO1 [4] | P12-Ichikawa [5] | SEM cells [6]
HPLM + 10% dialyzed FBS | 393 | 469 | 428
RPMI 5 mM glucose + 10% FBS | 433 | 450 | 441
RPMI 5 mM glucose + 10% dialyzed FBS | 397 | 457 | 473

Cc1nc2ccc(CN(C)c3ccc(C(=O)N[C@@H](CCC(=O)O)C(=O)O)s3)cc2c(=O)[nH]1
cell viability [%]
Details | NOMO1 [1] | P12-Ichikawa [2] | SEM cells [3]
HPLM + 10% dialyzed FBS, 0.000781 µM | 110 | 119 | 90.3
HPLM + 10% dialyzed FBS, 0.00234 µM | 120 | 119 | 93.1
HPLM + 10% dialyzed FBS, 0.00702 µM | 101 | 118 | 101
HPLM + 10% dialyzed FBS, 0.0211 µM | 111 | 118 | 103
HPLM + 10% dialyzed FBS, 0.0632 µM | 99 | 120 | 64.1
HPLM + 10% dialyzed FBS, 0.19 µM | 53.3 | 56.7 | 45
HPLM + 10% dialyzed FBS, 0.569 µM | 46 | 42.2 | 41.4
HPLM + 10% dialyzed FBS, 1.71 µM | 44.8 | 26.5 | 42.7
HPLM + 10% dialyzed FBS, 5.12 µM | 41.6 | 24.9 | 35.4
HPLM + 10% dialyzed FBS, 15.4 µM | 41.6 | 25.9 | 39.3
HPLM + 10% dialyzed FBS, 46.1 µM | 38.7 | 21.4 | 38.3
RPMI 5 mM glucose + 10% FBS, 0.000781 µM | 120 | 112 | 96.5
RPMI 5 mM glucose + 10% FBS, 0.00234 µM | 113 | 117 | 115
RPMI 5 mM glucose + 10% FBS, 0.00702 µM | 105 | 126 | 103
RPMI 5 mM glucose + 10% FBS, 0.0211 µM | 112 | 115 | 104
RPMI 5 mM glucose + 10% FBS, 0.0632 µM | 100 | 113 | 118
RPMI 5 mM glucose + 10% FBS, 0.19 µM | 114 | 97 | 99
RPMI 5 mM glucose + 10% FBS, 0.569 µM | 94.5 | 66.2 | 93
RPMI 5 mM glucose + 10% FBS, 1.71 µM | 72.2 | 42.6 | 85.6
RPMI 5 mM glucose + 10% FBS, 5.12 µM | 71.8 | 38.2 | 83.3
RPMI 5 mM glucose + 10% FBS, 15.4 µM | 75.7 | 35.1 | 82.1
RPMI 5 mM glucose + 10% FBS, 46.1 µM | 73.1 | 31.7 | 82.1
RPMI 5 mM glucose + 10% dialyzed FBS, 0.000781 µM | 116 | 106 | 98.7
RPMI 5 mM glucose + 10% dialyzed FBS, 0.00234 µM | 109 | 116 | 113
RPMI 5 mM glucose + 10% dialyzed FBS, 0.00702 µM | 104 | 105 | 113
RPMI 5 mM glucose + 10% dialyzed FBS, 0.0211 µM | 120 | 119 | 118
RPMI 5 mM glucose + 10% dialyzed FBS, 0.0632 µM | 108 | 108 | 106
RPMI 5 mM glucose + 10% dialyzed FBS, 0.19 µM | 70.9 | 88.9 | 45.9
RPMI 5 mM glucose + 10% dialyzed FBS, 0.569 µM | 37.6 | 60.8 | 33.2
RPMI 5 mM glucose + 10% dialyzed FBS, 1.71 µM | 25.6 | 32.4 | 35.3
RPMI 5 mM glucose + 10% dialyzed FBS, 5.12 µM | 33 | 28.5 | 29.6
RPMI 5 mM glucose + 10% dialyzed FBS, 15.4 µM | 33.1 | 27.8 | 32.4
RPMI 5 mM glucose + 10% dialyzed FBS, 46.1 µM | 32.1 | 26.9 | 30.5

AUC of viability dose-response curve
Details | NOMO1 [4] | P12-Ichikawa [5] | SEM cells [6]
HPLM + 10% dialyzed FBS | 315 | 287 | 298
RPMI 5 mM glucose + 10% FBS | 413 | 331 | 432
RPMI 5 mM glucose + 10% dialyzed FBS | 305 | 321 | 295

CCCCCN(C)CCC(O)(P(=O)([O-])O)P(=O)(O)O
cell viability [%]
Details | NOMO1 [1] | P12-Ichikawa [2] | SEM cells [3]
HPLM + 10% dialyzed FBS, 0.000781 µM | 68.4 | 88 | 57.1
HPLM + 10% dialyzed FBS, 0.00234 µM | 81.8 | 88.1 | 71.9
HPLM + 10% dialyzed FBS, 0.00702 µM | 89 | 87.1 | 72.8
HPLM + 10% dialyzed FBS, 0.0211 µM | 101 | 96 | 85.3
HPLM + 10% dialyzed FBS, 0.0632 µM | 85.3 | 95 | 71.8
HPLM + 10% dialyzed FBS, 0.19 µM | 92.9 | 97.6 | 91.8
HPLM + 10% dialyzed FBS, 0.569 µM | 89.5 | 99.5 | 88.3
HPLM + 10% dialyzed FBS, 1.71 µM | 92.4 | 92.9 | 21.9
HPLM + 10% dialyzed FBS, 5.12 µM | 86 | 93.4 | 82.8
HPLM + 10% dialyzed FBS, 15.4 µM | 80 | 99.2 | 104
HPLM + 10% dialyzed FBS, 46.1 µM | 94 | 92.4 | 75.2
RPMI 5 mM glucose + 10% FBS, 0.000781 µM | 81.1 | 81.4 | 74.5
RPMI 5 mM glucose + 10% FBS, 0.00234 µM | 88.8 | 86.5 | 88.1
RPMI 5 mM glucose + 10% FBS, 0.00702 µM | 89.5 | 91.3 | 84.1
RPMI 5 mM glucose + 10% FBS, 0.0211 µM | 96.7 | 95.6 | 90.4
RPMI 5 mM glucose + 10% FBS, 0.0632 µM | 97.3 | 85.8 | 75.5
RPMI 5 mM glucose + 10% FBS, 0.19 µM | 99.9 | 86.6 | 100
RPMI 5 mM glucose + 10% FBS, 0.569 µM | 97.9 | 94 | 98.3
RPMI 5 mM glucose + 10% FBS, 1.71 µM | 94.4 | 89.7 | 16.9
RPMI 5 mM glucose + 10% FBS, 5.12 µM | 95 | 91.3 | 77.5
RPMI 5 mM glucose + 10% FBS, 15.4 µM | 84.8 | 92.6 | 107
RPMI 5 mM glucose + 10% FBS, 46.1 µM | 81.7 | 83.4 | 73.3
RPMI 5 mM glucose + 10% dialyzed FBS, 0.000781 µM | 84.6 | 79 | 70
RPMI 5 mM glucose + 10% dialyzed FBS, 0.00234 µM | 87.3 | 85.2 | 85.4
RPMI 5 mM glucose + 10% dialyzed FBS, 0.00702 µM | 86.1 | 81.1 | 69
RPMI 5 mM glucose + 10% dialyzed FBS, 0.0211 µM | 80 | 95.3 | 95.7
RPMI 5 mM glucose + 10% dialyzed FBS, 0.0632 µM | 93.7 | 88.9 | 71.5
RPMI 5 mM glucose + 10% dialyzed FBS, 0.19 µM | 101 | 84.5 | 87.9
RPMI 5 mM glucose + 10% dialyzed FBS, 0.569 µM | 96.5 | 88.9 | 83.2
RPMI 5 mM glucose + 10% dialyzed FBS, 1.71 µM | 90.8 | 79.4 | 17.4
RPMI 5 mM glucose + 10% dialyzed FBS, 5.12 µM | 85.2 | 86.1 | 86.4
RPMI 5 mM glucose + 10% dialyzed FBS, 15.4 µM | 94.1 | 87.8 | 102
RPMI 5 mM glucose + 10% dialyzed FBS, 46.1 µM | 75 | 86.9 | 78.4

AUC of viability dose-response curve
Details | NOMO1 [4] | P12-Ichikawa [5] | SEM cells [6]
HPLM + 10% dialyzed FBS | 421 | 447 | 357
RPMI 5 mM glucose + 10% FBS | 439 | 426 | 384
RPMI 5 mM glucose + 10% dialyzed FBS | 423 | 409 | 367
